The results in this text go back to ChEMBL document CHEMBL4414564, “Viola "inconspicua" No More: An Analysis of Antibacterial Cyclotides” (2019).

In brackets after ≈: the same amount, converted by molar mass. Bridge positions count the residues as written; N and C are the ends. Square brackets hold non-standard residues; d marks the D form. Peptide text beside a SMILES is read from it. ξ: configuration not given here. Thr(3ξ) = CC(O)[C@H](N)C(=O)O

Common to all, as to format: functional
For assay [1], the system named is Escherichia coli. Kind of assay: Antibacterial activity against Escherichia coli ATCC 25922 assessed as reduction in […] at 60 uM incubated for 4 hrs by resazurin assay relative to control. On the set-up: scale not given: the % may be the effect or the level left.
The test system of assay [2] is Escherichia coli. Kind of assay: Antibacterial activity against Escherichia coli ATCC 25922 assessed as reduction in bacterial cell viability incubated for 4 hrs by resazurin assay. The settings on record: ATCC 25922, 4 h. Background: Alamar Blue is a resazurin reagent that responds to reducing activity.
The test system of the next assay is Klebsiella pneumoniae. Kind of assay: Antibacterial activity against rifampin and streptomycin resistant Klebsiella pneumoniae VK148 assessed as reduction in bacterial cell viability incubated for 4 hrs by resazurin assay. The conditions noted are these: VK148, 4 h.

With `CC[C@H](C)[C@@H]1NC(=O)[C@H](CO)NC(=O)[C@H](C)NC(=O)[C@H](CO)NC(=O)[C@H](Cc2ccc(O)cc2)NC(=O)[C@@H]2CSSC[C@@H]3NC(=O)[C@H](C(C)C)NC(=O)[C@H](CCCCN)NC(=O)[C@H](Cc4ccc(O)cc4)NC(=O)[C@H](CCCCN)NC(=O)[C@H](CO)NC(=O)[C@@H]4CSSC[C@H](NC(=O)[C@H](C(C)O)NC(=O)[C@H](CCC(=O)O)NC(=O)CNC(=O)[C@H](CSSC[C@H](NC(=O)CNC1=O)C(=O)N[C@@H](CO)C(=O)N4)NC(=O)[C@H](C)NC(=O)CNC(=O)[C@@H]1CCCN1C(=O)[C@H](CC(N)=O)NC(=O)CNC(=O)[C@H](CC(N)=O)NC(=O)[C@H](CC(C)C)NC(=O)[C@H]([C@@H](C)O)NC3=O)C(=O)N[C@@H]([C@@H](C)CC)C(=O)N[C@@H](Cc1c[nH]c3ccccc13)C(=O)NCC(=O)N[C@@H](CCCCN)C(=O)N2` (stereo partly drawn) (cyclo(ACGE[Thr(3ξ)]CIWGKCYSASIGCSCSKYKVCTLNGNPG); disulfide 2-18, 6-20, 11-26), the Activity in the assay on Escherichia coli [1] was 50%.
The term MIC denotes the smallest concentration in the dilution series that meets the test's criterion for growth inhibition. `CC[C@H](C)[C@@H]1NC(=O)[C@H](C)NC(=O)[C@H](CO)NC(=O)[C@H](CO)NC(=O)[C@H]([C@@H](C)CC)NC(=O)[C@@H]2CSSC[C@@H]3NC(=O)[C@H](C(C)C)NC(=O)[C@H](CCCCN)NC(=O)[C@@H](CO)NC(=O)[C@H](CCCCN)NC(=O)[C@H]4CSSC[C@H](NC(=O)[C@H](CO)NC(=O)[C@H](CCC(=O)O)NC(=O)CNC(=O)[C@H](CSSC[C@H](NC(=O)CNC1=O)C(=O)N[C@@H](CO)C(=O)N4)NC(=O)[C@@H]1CCCN1C(=O)[C@H]([C@@H](C)CC)NC(=O)CNC(=O)[C@H](CC(N)=O)NC(=O)[C@@H](CCCNC(=N)N)NC(=O)[C@H](Cc1ccc(O)cc1)NC3=O)C(=O)N[C@@H](C(C)C)C(=O)N[C@@H](Cc1c[nH]c3ccccc13)C(=O)N[C@@H]([C@@H](C)CC)C(=O)N1CCC[C@H]1C(=O)N2`: the results for the MIC with Escherichia coli [2] and in the assay on Klebsiella pneumoniae were 5 µM (≈ 15.7 µg/mL) and under 12.5 µM, respectively.
